Patent US20110189094A1, “BIOLOGICAL METHOD FOR IN VIVO TRACKING OF MOLECULES AFFECTING CELLULAR MIGRATION” (UNIVERSIDAD DE CHILE, priority 2008, published 2011)

Legend:
CD86 = assay: Expression of CD86 in dendritic cells; format: cell-based
Source text: (§1) Dendritic cells, when entering the maturation process, start to express chemokine receptors (CCR7, CXCR4) that direct their migration towards the secondary lymphoid organs. We have recently discovered that Fenritinide {4-HPR), a molecule utilized in “clinical trials” against breast cancer and neuroblastoma, inhibits the expression of CCR7 and CXCR4 in dendritic cells in maturation {Villablanca, Allende and collaborators; manuscript in preparation). […] In this way, Fenritinide would produce a blocking of the mature dendritic cells in the periphery, preventing their migration and arrival at the secondary lymphoid organs, affecting in this way the development of an immune response to pathogens or towards the tumoral cells proper.

[1] = system: posterior lateral line primordium; assay: Primordium migration with claudin-B primordium marker in zebra fish embryos; format: in vivo, zebra fish (Danio rerio); conditions: Example 2, incubation 22 hpf until 36 hpf
Method: (§2) Zebra fish (Danio rerio) are used, kept in a 14/10-hour light/darkness cycle. Embryos are recovered after natural fish mating and they grow in Petri plates at 28° C. in E3 medium (5 mM NaCl, 0.17 mM KCl, 0.33 mM CaCl2, 0.33 mM MgSO4, and 0.1% Methylene Blue) until the reach the development stadium suitable for the test, which is determined according to Kimmel et al., (1995). The larval stadiums are designated in post fertilization hours (hpf) or post fertilization days (dpf).
(§3) In this way, we have evaluated our hypothesis of the Fenritinide effect on dendritic cells, taking our invention as the test model. Zebra fish embryos were incubated in accordance with the basic conditions described in Example 1, but in the presence of Fenritinide since the time when the posterior lateral line primordium starts to migrate (22 hours post fecundation (hpf) stadium), until the LLP system is mature (36 hpf stadium) and is easily visualized with the DiAsp tinction. […] We checked whether the absence of mature neuromasts is caused by migration blocking by means of in situ hybridization using the claudin-B (anti-claudinB antibody, detected with immunofluorescence) primordium marker.

CD80 = assay: Expression of CD80 in dendritic cells; format: cell-based
Source text: as §1

neuromasts = assay: DiAsp tinction of mature neuromasts of the posterior lateral line in zebra fish embryos; format: in vivo, zebra fish (Danio rerio)
Method: as §2, §3
(§4) Embryos in the 22 hpf stadium were incubated between 26 and 28° C., in the absence or presence of either PGD2 or 15-deoxy-PJE2, permitting the development of embryos up to the 36 hpf stadium, at which time we checked the primordium advance both in the treated embryos and in the (untreated) control embryos.

lateral line primordium = assay: Lateral line primordium migration in CldnB::GFP transgenic zebra fish larvae (GFP fluorescence); format: in vivo, zebra fish (Danio rerio); conditions: 20 μM in medium, 22 hpf until 36 hpf
Method: as §2
In this first example, in each cup on a plate with 24 cups with 2 ml of E3 medium each, we placed from 3-10 transgenic embryos that express the GFP gene under the control of the CldnB promoter (CldnB::GFP; kindly donated by Dr. Darren Gilmour (EMBL, Heidelberg, Germany). The agents subjected to tests (N˜(4˜hydroxyphenyl)retinamide (Fenretinide, 4-HPR), retinaldehide 9-cis, retinaldehide all-trans and only with the control vehicle: DMSO) were added to the medium at a final concentration of 20 μM when the embryos reached the 22 hpf stadium and the fish were kept in the medium plus the agent until 36 hpf. The GFP mark in the migratory primordium was observed every 4-6 hours in order to monitor its progress. At 36 hpf, we fixed one half of the fish (5 from each cup) with 4% paraformaldehyde dissolved in PBS. We observe the fluorescence of GFP (indicating the primordium position) and evaluated whether it migrated properly or not (FIG. 1).

CXCR4 [2] = assay: Expression of CXCR4 in dendritic cells in maturation; format: cell-based
Source text: as §1

CD83 = assay: Expression of CD83 in dendritic cells; format: cell-based
Source text: as §1

CCR7 = assay: Expression of CCR7 in dendritic cells in maturation; format: cell-based
Source text: as §1

human dendritic cells = conditions: literature, Nencioni et al. 2002; cited from earlier work
LLP primordium = LLP primordium advance in zebra fish embryos incubated with prostaglandins; format: in vivo, zebra fish (Danio rerio)
Method: as §2, §4

CXCR4 [3] = conditions: literature, Scandelia et al. 2002; cited from earlier work
dendritic cells = assay: Migration of dendritic cells; format: cell-based; conditions: negative control
Source text: as §1

[4] = Example 3, 10 μM, 22 hpf up to 36 hpf

## CC1=C(/C=C/C(C)=C/C=C/C(C)=C/C(=O)Nc2ccc(O)cc2)C(C)(C)CCC1 [4-HPR, N˜(4˜hydroxyphenyl)retinamide]
CD86
  inhibition of CD86: does not inhibit
[1]
  primordium migration (claudin-B primordium marker): blocking of the migratory primordium at the beginning of its migration
CD80
  inhibition of CD80: does not inhibit
neuromasts; Example 2, incubation 22 hpf until 36 hpf
  DiAsp tinction of mature neuromasts: negative
Lateral line primordium
  migration of the lateral line primordium (GFP fluorescence): delay in the migration
CXCR4 [2]
  expression of CXCR4: inhibits
CD83
  inhibition of CD83: does not inhibit
CCR7
  expression of CCR7: inhibits

## CC1=C(/C=C/C(C)=C\C=C\C(C)=C\C=O)C(C)(C)CCC1 [9cRA, 9-cis retinaldehyde]
Lateral line primordium
  migration of the lateral line primordium (GFP fluorescence): normal migration

## CCCCC[C@H](O)/C=C/[C@H]1C(=O)C[C@H](O)[C@@H]1C/C=C\CCCC(=O)O [PGD2]
neuromasts; [4]
  DiAsp tinction of neuromasts: negative
Human dendritic cells
  migration through CXCR4 in human dendritic cells: inhibit migration
LLP primordium; [4]
  LLP primordium migration: considerably slower

## CCCCC[C@H](O)/C=C/[C@H]1[C@H](O)CC(=O)[C@@H]1C/C=C\CCCC(=O)O [PGE2]
neuromasts; Example 3, 22 hpf up to 36 hpf, 26-28° C., concentration not given
  DiAsp tinction of neuromasts: dyed with DiAsp
LLP primordium; Example 3, 22 hpf up to 36 hpf, concentration not given
  LLP primordium migration: migrated normally
CXCR4 [3]
  expression of CXCR4 in dendritic cells: increments

## CC1=C(/C=C/C(C)=C/C=C/C(C)=C/C(=O)O)C(C)(C)CCC1 [retinoic acid]
CXCR4 [2]
  expression of CXCR4: not capable of inhibiting
Dendritic cells
  inhibition of the migration of dendritic cells: not capable of inhibiting

## retinaldehide all-trans [atRA]
Lateral line primordium
  migration of the lateral line primordium (GFP fluorescence): normal migration
